Source: patent US8791148B2, “Substituted benzimidazolone derivatives, medicaments comprising them and their use” (AbbVie Deutschland GmbH & Co. KG, priority 2006, dated 2014)

These molecules were tested against T1, human vasopressin V1b receptor (Homo sapiens, UniProt P47901) (assay: Vasopressin V1b receptor binding assay). Settings: membranes from CHO-K1 cells with stably expressed human V1b receptors; displacement of 1.5 nM 3H-AVP; read-out: V1b receptor affinity (affinity constant Ki).
T1 construct: expressed in transfected cells; host or cells: CHO-K1 (cell line hV1b-3H2_CHO), membrane preparation
T1 sequence (P47901 1-424): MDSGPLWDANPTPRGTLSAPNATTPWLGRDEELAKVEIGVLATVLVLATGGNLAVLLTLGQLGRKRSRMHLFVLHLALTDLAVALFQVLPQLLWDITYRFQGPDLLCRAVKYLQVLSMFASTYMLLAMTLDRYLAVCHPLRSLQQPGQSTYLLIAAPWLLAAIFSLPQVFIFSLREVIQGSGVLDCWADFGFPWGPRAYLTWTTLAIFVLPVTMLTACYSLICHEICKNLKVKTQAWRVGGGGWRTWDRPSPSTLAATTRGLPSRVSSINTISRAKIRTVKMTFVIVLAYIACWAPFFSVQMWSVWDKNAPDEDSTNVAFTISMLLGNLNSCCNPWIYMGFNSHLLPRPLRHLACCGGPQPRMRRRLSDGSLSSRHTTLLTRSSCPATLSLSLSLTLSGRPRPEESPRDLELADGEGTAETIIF
Procedure, shortened: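 Ki values come from nonlinear regression of triplicate scintillation counts after filtration. Test compound (2% DMSO in the mixture) and radioligand were incubated 60 min at room temperature with human V1b membranes in pH 7.4 Tris buffer with 10 mM MgCl2 and 0.1% BSA. Nonspecific binding was set with 1 uM AVP.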

| Ki | SMILES |
| --- | --- |
| < 100 nM | COc1ccc(S(=O)(=O)n2c(=O)n(C(C(=O)N3CCC(NC4CCNCC4)C3)c3ccccc3)c3cc(Cl)ccc32)cc1 (stereo not drawn) [Example 175, 5-Chloro-1-(4-methoxybenzenesulfonyl)-3-{2-oxo-1-phenyl-2-[3-(piperidin-4-ylamino)pyrrolidin-1-yl]ethyl}-1,3-dihydrobenzimidazol-2-one] |
| < 100 nM | COc1ccc(S(=O)(=O)n2c(=O)n(C(C(=O)N3CC[C@@H](NC4CCNCC4)C3)c3ccccc3)c3cc(Cl)ccc32)cc1 (stereo partly drawn) [Example 176, 5-Chloro-1-(4-methoxybenzenesulfonyl)-3-{2-oxo-1-phenyl-2-[(R)-3-(piperidin-4-ylamino)pyrrolidin-1-yl]ethyl}-1,3-dihydrobenzimidazol-2-one] |
| < 100 nM | COc1ccc(S(=O)(=O)n2c(=O)n(C(C(=O)N3CC[C@H](NC4CCNCC4)C3)c3ccccc3)c3cc(Cl)ccc32)cc1 (stereo partly drawn) [Example 177, 5-Chloro-1-(4-methoxybenzenesulfonyl)-3-{2-oxo-1-phenyl-2-[(S)-3-(piperidin-4-ylamino)pyrrolidin-1-yl]ethyl}-1,3-dihydrobenzimidazol-2-one] |
| < 100 nM | COc1ccc(S(=O)(=O)n2c(=O)n(C(C(=O)N3CC[C@H](N4CCN(C(C)C)CC4)C3)c3ccccc3)c3cc(C#N)ccc32)cc1 (stereo partly drawn) [Example 189, 3-{2-[(S)-3-(4-Isopropylpiperazin-1-yl)pyrrolidin-1-yl]-2-oxo-1-phenylethyl}-1-(4-methoxybenzenesulfonyl)-2-oxo-2,3-dihydro-1H-benzimidazole-5-carbonitrile] |
| < 100 nM | CCCN1CCN([C@H]2CCCN(C(=O)C(c3ccccc3)n3c(=O)n(S(=O)(=O)c4ccc(OC)cc4)c4ccc(C#N)cc43)C2)CC1 (stereo partly drawn) [Example 191, 1-(4-Methoxybenzenesulfonyl)-2-oxo-3-{2-oxo-1-phenyl-2-[(S)-3-(4-propylpiperazin-1-yl)piperidin-1-yl]ethyl}-2,3-dihydro-1H-benzimidazole-5-carbonitrile] |
| < 100 nM | COc1ccc(S(=O)(=O)n2c(=O)n(C(C(=O)N3CCC[C@H](N4CCN(C)CC4)C3)c3ccccc3)c3cc(C#N)ccc32)cc1 (stereo partly drawn) [Example 193, 1-(4-Methoxybenzenesulfonyl)-3-{2-[(S)-3-(4-methylpiperazin-1-yl)piperidin-1-yl]-2-oxo-1-phenylethyl}-2-oxo-2,3-dihydro-1H-benzimidazole-5-carbonitrile] |
| < 100 nM | COc1ccc(S(=O)(=O)n2c(=O)n(C(C(=O)N3CCC[C@H](N4CCNCC4)C3)c3ccccc3)c3cc(C#N)ccc32)cc1 (stereo partly drawn) [Example 195, 1-(4-Methoxybenzenesulfonyl)-2-oxo-3-[2-oxo-1-phenyl-2-((S)-3-piperazin-1-ylpiperidin-1-yl)ethyl]-2,3-dihydro-1H-benzimidazole-5-carbonitrile] |
| < 100 nM | COc1ccc(S(=O)(=O)n2c(=O)n(C(C(=O)N3CCC(NC4CCN(C)CC4)CC3)c3ccccc3)c3cc(C#N)ccc32)cc1 (stereo not drawn) [Example 206, 1-(4-Methoxybenzenesulfonyl)-3-{2-[4-(1-methylpiperidin-4-ylamino)piperidin-1-yl]-2-oxo-1-phenylethyl}-2-oxo-2,3-dihydro-1H-benzimidazole-5-carbonitrile] |
| < 100 nM | COc1ccc(S(=O)(=O)n2c(=O)n(C(C(=O)N3CC[C@H](NC4CCN(C)CC4)C3)c3ccccc3)c3cc(C#N)ccc32)cc1 (stereo partly drawn) [Example 207, 1-(4-Methoxybenzenesulfonyl)-3-{2-[(S)-3-(1-methylpiperidin-4-ylamino)-pyrrolidin-1-yl]-2-oxo-1-phenylethyl}-2-oxo-2,3-dihydro-1H-benzimidazole-5-carbonitrile] |
| < 100 nM | COc1ccc(S(=O)(=O)n2c(=O)n(C(C(=O)N3CC[C@H](NC4CCN(C(C)C)CC4)C3)c3ccccc3)c3cc(C#N)ccc32)cc1 (stereo partly drawn) [Example 208, 3-{2-[(S)-3-(1-Isopropylpiperidin-4-ylamino)pyrrolidin-1-yl]-2-oxo-1-phenylethyl}-1-(4-methoxybenzenesulfonyl)-2-oxo-2,3-dihydro-1H-benzimidazole-5-carbonitrile] |

The remaining lines, values behind:

| SMILES | Ki |
| --- | --- |
| COc1ccc(S(=O)(=O)n2c(=O)n(C(C(=O)N[C@@H]3CCNC3)c3ccccc3)c3cc(Cl)ccc32)cc1 (stereo partly drawn) [Example 174, 2-[6-Chloro-3-(4-methoxybenzenesulfonyl)-2-oxo-2,3-dihydrobenzimidazol-1-yl]-2-phenyl-N—(R)-pyrrolidin-3-ylacetamide] | 500 to 10000 nM |
| CCCN1CCN([C@H]2CCN(C(=O)C(c3ccccc3)n3c(=O)n(S(=O)(=O)c4ccc(OC)cc4OC)c4ccc(C#N)cc43)C2)CC1 (stereo partly drawn) [Example 199, 1-(2,4-Dimethoxybenzenesulfonyl)-2-oxo-3-{2-oxo-1-phenyl-2-[(S)-3-(4-propylpiperazin-1-yl)pyrrolidin-1-yl]ethyl}-2,3-dihydro-1H-benzimidazole-5-carbonitrile] | < 100 nM |
| CCCN1CCN([C@H]2CCN(C(=O)C(c3ccccc3)n3c(=O)n(S(=O)(=O)c4cccc5cccnc45)c4ccc(C#N)cc43)C2)CC1 (stereo partly drawn) [Example 200, 2-oxo-3-{2-oxo-1-phenyl-2-[(S)-3-(4-propylpiperazin-1-yl)pyrrolidin-1-yl]-ethyl}-1-(quinoline-8-sulfonyl)-2,3-dihydro-1H-benzimidazole-5-carbonitrile] | 500 to 10000 nM |
| CCCN1CCN([C@H]2CCN(C(=O)C(c3ccccc3)n3c(=O)n(S(=O)(=O)c4cccs4)c4ccc(C#N)cc43)C2)CC1 (stereo partly drawn) [Example 201, 2-oxo-3-{2-oxo-1-phenyl-2-[(S)-3-(4-propylpiperazin-1-yl)pyrrolidin-1-yl]-ethyl}-1-(thiophene-2-sulfonyl)-2,3-dihydro-1H-benzimidazole-5-carbonitrile] | 100 to 500 nM |
| CCCN1CCN([C@H]2CCN(C(=O)C(c3ccccc3)n3c(=O)n(S(=O)(=O)c4ccccc4)c4ccc(C#N)cc43)C2)CC1 (stereo partly drawn) [Example 202, 1-Benzenesulfonyl-2-oxo-3-{2-oxo-1-phenyl-2-[(S)-3-(4-propylpiperazin-1-yl)-pyrrolidin-1-yl]ethyl}-2,3-dihydro-1H-benzimidazole-5-carbonitrile] | 100 to 500 nM |
| CCCN1CCN([C@H]2CCN(C(=O)C(c3ccccc3)n3c(=O)n(S(=O)(=O)c4ccsc4)c4ccc(C#N)cc43)C2)CC1 (stereo partly drawn) [Example 203, 2-oxo-3-{2-oxo-1-phenyl-2-[(S)-3-(4-propylpiperazin-1-yl)pyrrolidin-1-yl]-ethyl}-1-(thiophene-3-sulfonyl)-2,3-dihydro-1H-benzimidazole-5-carbonitrile] | < 100 nM |
| CCCN1CCN([C@H]2CCN(C(=O)C(c3ccccc3)n3c(=O)n(S(=O)(=O)c4ccc(C)cn4)c4ccc(C#N)cc43)C2)CC1 (stereo partly drawn) [Example 204, 1-(5-Methylpyridine-2-sulfonyl)-2-oxo-3-{2-oxo-1-phenyl-2-[(S)-3-(4-propylpiperazin-1-yl)pyrrolidin-1-yl]ethyl}-2,3-dihydro-1H-benzimidazole-5-carbonitrile] | 100 to 500 nM |
| CCCN1CCN([C@H]2CCN(C(=O)C(c3ccccc3)n3c(=O)n(S(=O)(=O)c4ccccc4OC)c4ccc(C#N)cc43)C2)CC1 (stereo partly drawn) [Example 205, 1-(2-Methoxybenzenesulfonyl)-2-oxo-3-{2-oxo-1-phenyl-2-[(S)-3-(4-propylpiperazin-1-yl)pyrrolidin-1-yl]ethyl}-2,3-dihydro-1H-benzimidazole-5-carbonitrile] | 500 to 10000 nM |
